Data: patent US11279703B2, “Fused pyrimidine compounds as BRD4 and JAK2 dual inhibitors and methods for use thereof” (APTOSE BIOSCIENCES INC., priority 2016, dated 2022)

Key:
BRD4-BD1 = BRD4-BD1 (Homo sapiens (Human), UniProt O60885); test: AlphaLisa bromodomain binding assay, BRD4-BD1; settings: Table 6; read-out: BRD4(1) IC50
BRD4-BD2 = BRD4-BD2 (Homo sapiens (Human), UniProt O60885); test: AlphaLisa bromodomain binding assay, BRD4-BD2; settings: Table 6; read-out: BRD4(2) IC50
Description: (§1) An AlphaLisa assay was used to observe bromodomain binding and measure IC50s for the compounds disclosed herein. An AlphaLisa assay is a bead-based assay used to detect interactions between bromodomains and polyacetylated histone peptides. Donor and acceptor beads bound to target and ligand are brought into proximity by this protein-protein interaction.
(§2) Equipment Required • 1. […] Plate centrifuge • 3. Plate shaker • 4. […] Single channel and multi-channel pipettes • 6. Microplate reader (Pherastar)
(§3) Stock and Final Assay Concentrations (FAC) • 1. All reference and test compounds are made at a concentration of 10 mM in DMSO. Compounds are serially diluted in DMSO and a FAC starting from 10 μM to 10 point 3 fold serial dilutions is arrived. FAC of DMSO is 1%. • 2. Enzyme stock and FAC
(§4) Biotinylated substrate (Acetylated histone H4, biotinylated substrate—cat no. AS64989-025, Anaspec) stock and FAC
(§5) • 4. Acceptor and donor beads stock and FAC
(§6) Buffers • For the enzyme and substrate dilution following buffer is used (for 50 ml) • HEPES: 50 mM 2.5 ml • NaCl: 25 mM 1.25 ml • DTT: 10 mM 0.05 ml • BSA: 0.1% 0.05 g • MilliQ water: 45.7 ml • For dilution of acceptor and donor beads AlphaLISA 5× epigenetics Buffer Perkin Elmer (Cat: AL008C) is used at 1× concentration.
(§7) Procedure • 1. […] Tap the plate gently • 3. […] Cover with plate sealer • 5. […] Incubate the plate at room temperature for 10 minutes • 7. Add 10 μl of the substrate • 8. Cover with plate sealer • 9. […] Cover with plate sealer • 14. […] Cover with plate sealer • 18.
(§8) The percent inhibition is calculated in the excel analysis template and the IC50 values are subsequently determined using a sigmoidal dose-response curve (variable slope) using GraphPad Prism® 5 software.

BRD2-BD1 = BRD2-BD1 (Homo sapiens (Human), UniProt P25440); test: AlphaLisa bromodomain binding assay, BRD2-BD1; settings: Table 6; read-out: BRD2(1) IC50
Sequence of BRD2-BD1 (P25440 74-180): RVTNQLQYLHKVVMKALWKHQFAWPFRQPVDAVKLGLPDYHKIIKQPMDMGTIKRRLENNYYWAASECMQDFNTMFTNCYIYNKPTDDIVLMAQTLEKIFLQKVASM
Description: as §1, §2, §3, §4, §5, §6, §7, §8

BRD3-BD1 = BRD3-BD1 (Homo sapiens (Human), UniProt Q15059); test: AlphaLisa bromodomain binding assay, BRD3-BD1; settings: Table 6; read-out: BRD3(1) IC50
Sequence of BRD3-BD1 (Q15059 34-140): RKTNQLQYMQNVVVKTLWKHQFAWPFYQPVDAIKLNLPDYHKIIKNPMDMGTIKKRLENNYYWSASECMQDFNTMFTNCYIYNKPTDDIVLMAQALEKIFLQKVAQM
Description: as §1, §2, §3, §4, §5, §6, §7, §8

BRDT-BD1 = BRDT-BD1 (Homo sapiens (Human), UniProt Q58F21); test: AlphaLisa bromodomain binding assay, BRDT-BD1; settings: Table 6; read-out: BRDT(1) IC50
Description: as §1, §2, §3, §4, §5, §6, §7, §8

JAK2 = JAK2 (Homo sapiens (Human), UniProt O60674); test: HTRF kinase assay, JAK2; format: biochemical; settings: Table 6
Sequence of JAK2 (O60674 whole entry): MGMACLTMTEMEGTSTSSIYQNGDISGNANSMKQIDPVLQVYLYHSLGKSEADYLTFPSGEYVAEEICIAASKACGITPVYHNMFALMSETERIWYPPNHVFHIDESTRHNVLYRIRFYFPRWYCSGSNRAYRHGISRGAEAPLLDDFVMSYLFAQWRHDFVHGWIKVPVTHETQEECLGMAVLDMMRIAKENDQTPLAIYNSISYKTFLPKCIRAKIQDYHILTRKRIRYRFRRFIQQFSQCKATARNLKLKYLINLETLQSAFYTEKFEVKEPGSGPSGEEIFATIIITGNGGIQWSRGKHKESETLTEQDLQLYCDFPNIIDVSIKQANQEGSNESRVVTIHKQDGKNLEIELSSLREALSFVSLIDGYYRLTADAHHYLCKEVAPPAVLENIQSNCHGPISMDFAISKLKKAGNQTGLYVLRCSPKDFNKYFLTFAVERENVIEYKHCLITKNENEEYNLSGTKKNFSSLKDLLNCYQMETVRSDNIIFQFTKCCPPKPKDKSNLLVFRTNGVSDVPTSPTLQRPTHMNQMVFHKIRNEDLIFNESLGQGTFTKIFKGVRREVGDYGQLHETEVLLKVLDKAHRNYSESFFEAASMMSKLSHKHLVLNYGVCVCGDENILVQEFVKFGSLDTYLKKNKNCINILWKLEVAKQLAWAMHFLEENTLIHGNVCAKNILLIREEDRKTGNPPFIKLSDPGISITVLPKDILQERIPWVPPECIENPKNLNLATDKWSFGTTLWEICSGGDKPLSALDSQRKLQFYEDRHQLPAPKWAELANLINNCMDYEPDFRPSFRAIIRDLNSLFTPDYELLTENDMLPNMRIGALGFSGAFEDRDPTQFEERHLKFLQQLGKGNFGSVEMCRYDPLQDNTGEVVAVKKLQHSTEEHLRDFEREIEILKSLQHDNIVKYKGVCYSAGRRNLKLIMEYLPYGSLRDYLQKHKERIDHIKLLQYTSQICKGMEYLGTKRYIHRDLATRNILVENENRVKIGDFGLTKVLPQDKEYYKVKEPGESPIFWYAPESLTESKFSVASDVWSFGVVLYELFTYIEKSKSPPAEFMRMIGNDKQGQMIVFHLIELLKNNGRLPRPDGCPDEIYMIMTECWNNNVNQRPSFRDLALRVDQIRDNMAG

JAK1 = JAK1 (Homo sapiens (Human), UniProt P23458); test: HTRF kinase assay, JAK1; format: biochemical; settings: Table 6
Sequence of JAK1 (P23458 whole entry): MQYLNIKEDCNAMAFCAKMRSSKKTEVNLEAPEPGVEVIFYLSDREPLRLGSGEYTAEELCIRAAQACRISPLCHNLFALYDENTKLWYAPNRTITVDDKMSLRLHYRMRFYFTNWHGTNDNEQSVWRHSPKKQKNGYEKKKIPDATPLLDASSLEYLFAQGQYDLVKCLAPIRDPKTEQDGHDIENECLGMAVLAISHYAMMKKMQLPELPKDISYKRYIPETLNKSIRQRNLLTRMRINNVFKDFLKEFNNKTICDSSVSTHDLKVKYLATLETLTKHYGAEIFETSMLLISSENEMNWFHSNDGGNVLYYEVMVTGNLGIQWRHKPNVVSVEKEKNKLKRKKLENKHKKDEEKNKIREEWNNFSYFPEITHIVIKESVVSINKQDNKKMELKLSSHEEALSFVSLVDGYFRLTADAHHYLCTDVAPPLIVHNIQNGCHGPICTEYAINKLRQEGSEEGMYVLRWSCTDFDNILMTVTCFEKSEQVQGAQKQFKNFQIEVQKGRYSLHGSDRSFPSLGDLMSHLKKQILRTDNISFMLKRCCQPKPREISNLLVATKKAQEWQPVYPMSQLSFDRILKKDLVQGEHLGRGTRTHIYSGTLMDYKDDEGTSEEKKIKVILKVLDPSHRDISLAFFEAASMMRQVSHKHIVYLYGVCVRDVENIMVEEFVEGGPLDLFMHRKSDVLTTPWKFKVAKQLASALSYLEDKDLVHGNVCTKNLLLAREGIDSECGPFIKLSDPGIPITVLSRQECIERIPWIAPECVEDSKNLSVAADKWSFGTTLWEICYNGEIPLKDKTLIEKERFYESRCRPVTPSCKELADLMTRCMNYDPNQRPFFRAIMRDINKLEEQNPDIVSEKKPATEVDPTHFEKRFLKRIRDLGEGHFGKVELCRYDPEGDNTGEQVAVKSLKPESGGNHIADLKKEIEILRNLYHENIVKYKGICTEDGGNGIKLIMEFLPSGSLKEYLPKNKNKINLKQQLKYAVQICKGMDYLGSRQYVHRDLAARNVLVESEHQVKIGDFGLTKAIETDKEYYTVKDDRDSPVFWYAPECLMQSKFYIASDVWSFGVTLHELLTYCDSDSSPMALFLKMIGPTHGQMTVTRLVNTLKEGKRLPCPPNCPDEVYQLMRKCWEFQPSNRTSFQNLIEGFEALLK
Description: (§9) A kinase assay with HTRF was used to observe JAK activity and calculate the IC50s of compounds disclosed herein. HTRF is an enzymatic assay used to determine the amount of phosphorylated peptide. FRET (Fluorescence Resonance Energy Transfer) is based on the transfer of energy between two fluorophores—a donor and an acceptor—when in close proximity. Molecular interactions between biomolecules can be assessed by coupling each partner with a fluorescent label and by detecting the level of energy transfer. The amount of phopshorylated peptide can be detected using a combination of a Eu 3+Cryptate labeled anti-phospho residue antibody, SA-XL665 and a biotinylated substrate. The signal is proportional to the concentration of phospho-residues.
(§10) Equipment Required • 1. […] Plate centrifuge • 3. Plate shaker • 4. […] Single channel and multi-channel pipettes • 6. Microplate reader (Pherastar)]
as §3, with “arrived. For Ruxolitinib the starting FAC is 1 μM.” for “arrived.”
(§11) • JAK-1: Invtirogen Cat: PR8767C • JAK-2: Invtirogen Cat: PR7820B • JAK-3: Invtirogen Cat: PR7507B • 3. Substrate (synthetic peptide-Biotinylated-N-terminal tag-[…] from Biopeptide) stock and FAC
(§12) • Adenosine 5′-triphosphate disodium salt hydrate: Sigma Cat: A26209 • 5. […] Buffers • Base buffer (for 50 ml)
(§13) • HTRF buffer: • 50 mM Tris-HCl, pH—7.5 • 100 mM NaCl • 0.1% BSA • 0.05% Tween20 • 0.5 mM EDTA
(§14) To a 384 well black-plate: • 1. Add 17 μL of the buffer to each well of the 384-well black plate • 2. […] Add 5 μl of the enzyme to each well of the plate • 4. Add 10 μl of the substrate and ATP mix to all the wells • 5. Cover with plate sealer • 6. […] Incubate at room temperature for 1 hour on shaker • 8. […] Add 37.5 μL of the HTRF mix to these wells. • 9. Incubate the plate at room temperature on shaker for 45 minutes. • 10.
as §8

JAK3 = JAK3 (Homo sapiens (Human), UniProt P52333); test: HTRF kinase assay, JAK3; format: biochemical; settings: Table 6
Sequence of JAK3 (P52333 whole entry): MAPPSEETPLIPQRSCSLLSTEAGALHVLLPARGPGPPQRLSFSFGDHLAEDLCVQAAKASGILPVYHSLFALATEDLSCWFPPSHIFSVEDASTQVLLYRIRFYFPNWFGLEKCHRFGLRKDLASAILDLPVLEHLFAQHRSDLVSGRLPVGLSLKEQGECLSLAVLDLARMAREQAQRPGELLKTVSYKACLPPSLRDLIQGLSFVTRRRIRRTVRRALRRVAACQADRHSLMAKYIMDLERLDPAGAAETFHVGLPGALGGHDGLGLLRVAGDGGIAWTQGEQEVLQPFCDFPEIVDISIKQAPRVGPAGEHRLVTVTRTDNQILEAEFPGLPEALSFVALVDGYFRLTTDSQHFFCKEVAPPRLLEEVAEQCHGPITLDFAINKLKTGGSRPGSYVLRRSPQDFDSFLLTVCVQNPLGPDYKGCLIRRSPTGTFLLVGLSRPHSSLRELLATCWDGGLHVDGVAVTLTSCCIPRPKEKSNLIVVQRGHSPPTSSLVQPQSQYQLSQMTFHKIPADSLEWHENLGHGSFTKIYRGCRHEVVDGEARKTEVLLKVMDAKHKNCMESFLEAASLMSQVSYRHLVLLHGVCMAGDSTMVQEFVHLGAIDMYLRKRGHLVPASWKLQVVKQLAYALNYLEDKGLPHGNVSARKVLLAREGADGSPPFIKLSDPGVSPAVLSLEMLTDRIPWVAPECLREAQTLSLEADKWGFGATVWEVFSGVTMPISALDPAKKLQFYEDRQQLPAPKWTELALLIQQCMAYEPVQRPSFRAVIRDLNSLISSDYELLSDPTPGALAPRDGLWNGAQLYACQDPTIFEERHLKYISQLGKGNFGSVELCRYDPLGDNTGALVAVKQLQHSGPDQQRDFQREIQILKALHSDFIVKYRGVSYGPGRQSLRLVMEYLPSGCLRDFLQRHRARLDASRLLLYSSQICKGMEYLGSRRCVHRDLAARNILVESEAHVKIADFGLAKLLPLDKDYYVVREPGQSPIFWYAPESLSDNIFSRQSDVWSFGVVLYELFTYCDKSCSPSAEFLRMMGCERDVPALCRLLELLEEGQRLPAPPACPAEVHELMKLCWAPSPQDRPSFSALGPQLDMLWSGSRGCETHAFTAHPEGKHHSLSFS
Description: as §9, §10
as §3, with “arrived. For Ruxolitinib the starting FAC is 1 μM.” for “arrived.”
as §11, §12, §13, §14, §8

Row | SMILES | IC50 (BRD4-BD1) [nM] | IC50 (BRD4-BD2) [nM] | IC50 (BRD2-BD1) [nM] | IC50 (BRD3-BD1) [nM] | IC50 (BRDT-BD1) [nM] | IC50 (JAK2) [nM] | IC50 (JAK1) [nM] | IC50 (JAK3) [nM]
1 | Cc1ccc(Nc2nc(Nc3ccc(N4CCN(C)CC4)cc3)nc3ccccc23)cc1NS(=O)(=O)C(C)(C)C | 470 | 1130 | 636 | 3200 | 1800 | – | – | –
2 | Cc1cnc(Nc2ccc(C(=O)NC3CCN(C)CC3)c(F)c2)nc1Nc1ccc2c(c1)N(S(=O)(=O)C(C)(C)C)CC2 | 87 | 30 | 157 | 92 | 131 | 24 | 1010 | –
3 | Cc1cnc(Nc2ccc(OCCN3CCCC3)cc2)nc1Nc1cccc(NS(=O)(=O)C(C)(C)C)c1 | 420 | 451 | 682 | 853 | 638 | 2.3 | – | 185
4 | COc1cc(Nc2nc(Nc3ccc(N4CCN(C)CC4)cc3)nc3ccccc23)ccc1Cl | 6300 | 5300 | 790 | 8400 | – | – | – | –
5 | CN1CCN(c2ccc(Nc3ncc4ccn(-c5cccc(NS(=O)(=O)C(C)(C)C)c5)c4n3)cc2F)CC1 | 434 | 487 | 2860 | 652 | 1110 | 18 | 424 | 125
6 | CN1CCC(NC(=O)c2ccc(Nc3ncc4ccn(-c5cccc(NS(=O)(=O)C(C)(C)C)c5)c4n3)cc2F)CC1 | 240 | 156 | 314 | 89 | 230 | 11.5 | 57 | 103
7 | CC(C)(C)S(=O)(=O)Nc1cccc(-n2ccc3cnc(Nc4ccc(C5CCNCC5)cc4)nc32)c1 | 676 | 325 | 1400 | 570 | 322 | – | 473 | 100
8 | COc1cc(Nc2ncc3ccn(-c4cccc(NS(=O)(=O)C(C)(C)C)c4)c3n2)ccc1N1CCN(C)CC1 | 431 | 130 | 743 | 161 | 363 | – | 293 | 82
9 | CN1CCN(c2ccc(Nc3ncc4ccn(-c5cccc(NS(=O)(=O)C(C)(C)C)c5)c4n3)cc2C#N)CC1 | 378 | 491 | 1150 | 248 | 1000 | 18.9 | 1100 | 338
10 | CC(C)(C)S(=O)(=O)Nc1cccc(-n2ccc3cnc(Nc4ccc(C(=O)NC5CCNCC5)c(F)c4)nc32)c1 | 398 | 99 | 467 | 78 | 312 | – | 206 | 242
11 | CN(C)C1CCN(C(=O)c2ccc(Nc3ncc4ccn(-c5cccc(NS(=O)(=O)C(C)(C)C)c5)c4n3)cc2F)CC1 | 246 | 29 | 318 | 117 | 189 | 20 | 1100 | 292
12 | COc1cc(Nc2ncc3ccn(-c4cccc(NS(=O)(=O)C(C)(C)C)c4)c3n2)ccc1N1CCNCC1 | 402 | 128 | 548 | 142 | 320 | 2.8 | 275 | 112
13 | CNCCNC(=O)Cc1ccc(Nc2ncc3ccn(-c4cccc(NS(=O)(=O)C(C)(C)C)c4)c3n2)cc1 | 205 | 67 | 576 | 117 | 268 | 50 | 178 | 253
14 | CC(C)(C)S(=O)(=O)Nc1cccc(-c2csc3cnc(Nc4ccc(N5CCNCC5)c(F)c4)nc23)c1 | 295 | 193 | 506 | 181 | 308 | 2 | 169 | 61
15 | CN(C)C1CCN(c2ccc(Nc3ncc4scc(-c5ccc(F)c(NS(=O)(=O)C(C)(C)C)c5)c4n3)cc2F)CC1 | 108 | 91 | 292 | 110 | 177 | 8 | 927 | 97
16 | CC(C)(C)S(=O)(=O)Nc1cccc(Nc2nc(NC3CCNCC3)nc3sccc23)c1 [drawing 203] | 94 | 309 | 458 | 248 | – | – | – | –
17 | CN1CCC(Nc2nc(Nc3ccc4c(c3)N(S(=O)(=O)C(C)(C)C)CC4)c3ccsc3n2)CC1 [drawing 204] | 160 | 293 | 776 | 331 | – | – | – | –
18 | Cc1cnc(Nc2ccc(N3CCN(C)CC3)cc2)nc1Nc1cccc(NS(=O)(=O)C(C)(C)C)c1 [drawing 205] | 210 | 13 | 373 | 213 | – | 10 | – | –
19 | CN1CCN(c2ccc(Nc3nc4c(c(Nc5cccc(NS(=O)(=O)C(C)(C)C)c5)n3)COC4)cc2)CC1 [drawing 206] | – | 1000 | 1770 | 2470 | – | – | – | –
20 | Cc1cnc(Nc2ccc(N3CCN(C)CC3)cc2)nc1Nc1cccc(NS(=O)(=O)C(C)(C)C)c1 [drawing 245] | 118 | 73 | 448 | 366 | 230 | 4 | – | –
21 | Cc1cnc(Nc2ccc(N3CCN(C)CC3)c(F)c2)nc1Nc1ccc2c(c1)N(S(=O)(=O)C(C)(C)C)CC2 [drawing 246] | 93.4 | 112 | 254 | 183 | 228 | – | – | 313
22 | CN1CCN(c2ccc(Nc3ncc4ccn(-c5cccc(NS(=O)(=O)C(C)(C)C)c5)c4n3)cc2)CC1 [drawing 260] | 220 | 175 | 700 | 270 | 696 | – | 243 | 127
23 | Cc1cnc(Nc2ccc(N3CCN(C)CC3)cc2)nc1Nc1cccc(NS(=O)(=O)C(C)(C)C)c1 [drawing 271] | 220 | 73 | 448 | 366 | 230 | 7 | – | –
24 | CN1CCN(c2ccc(Nc3ncc4ccn(-c5cccc(NS(=O)(=O)C6CC6)c5)c4n3)cc2)CC1 [drawing 297] | 1460 | 1350 | 6210 | 1740 | 2630 | 4.3 | – | 31
25 | CNC1CCN(c2ccc(Nc3ncc4ccn(-c5ccc(F)c(NS(=O)(=O)C(C)(C)C)c5)c4n3)cc2F)CC1 [drawing 457] | 150 | 88 | 420 | – | 302 | 52 | 9900 | 608
